target: human activated kallikrein enzyme (Homo sapiens, UniProt P03952); experiment: Plasma kallikrein inhibition, fluorogenic PFR-AMC substrate, 500 pM activated kallikrein format; assay type: biochemical; conditions: 500 pM activated kallikrein, 300 uM PFR-AMC, 30 min preincubation, 10 min reaction; read-out: Primary Dose Response Assay: Average EC50
Procedure, shortened: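 Enzyme (500 pM) was preincubated with inhibitor for 30 min at room temperature in 20 mM Tris pH 7.5, 1 mM EDTA, 150 mM NaCl, 0.1% PEG-400 and 0.1% Triton X-100. The reaction was started with 300 uM PFR-AMC, run 10 min, and fluorescence read at 460 nm (380 nm excitation). EC50 derived.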

Chain of human activated kallikrein enzyme (P03952 391-638 limits assumed): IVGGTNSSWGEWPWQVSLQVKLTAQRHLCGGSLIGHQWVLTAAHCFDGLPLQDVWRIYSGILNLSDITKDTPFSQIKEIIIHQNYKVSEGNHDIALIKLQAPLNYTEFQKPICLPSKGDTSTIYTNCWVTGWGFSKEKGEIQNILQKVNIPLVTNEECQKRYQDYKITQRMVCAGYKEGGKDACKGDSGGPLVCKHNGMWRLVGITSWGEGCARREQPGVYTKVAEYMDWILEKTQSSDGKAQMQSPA
Chain of human activated kallikrein enzyme (P03952 20-390 partner limits assumed): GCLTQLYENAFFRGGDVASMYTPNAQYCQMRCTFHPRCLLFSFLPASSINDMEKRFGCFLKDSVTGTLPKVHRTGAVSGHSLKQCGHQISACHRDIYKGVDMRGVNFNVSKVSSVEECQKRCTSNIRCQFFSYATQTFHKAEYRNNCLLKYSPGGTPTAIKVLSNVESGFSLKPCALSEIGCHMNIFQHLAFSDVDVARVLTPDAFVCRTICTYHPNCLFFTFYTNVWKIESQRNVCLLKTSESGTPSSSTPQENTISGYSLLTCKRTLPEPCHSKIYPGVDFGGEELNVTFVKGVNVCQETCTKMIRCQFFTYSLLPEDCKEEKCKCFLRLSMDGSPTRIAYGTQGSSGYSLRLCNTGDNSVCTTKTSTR

Compound	EC50
Cc1ccnc([C@H]2C[C@@H]2C(=O)Nc2cc(N[C@H](C)c3cn4cc(C5CC5)cc(N5C(=O)N(C)C(=O)C5(C)C)c4n3)nc(C)n2)n1 [Example 432, (1S,2S)-N-(6-(((R)-1-(6-cyclopropyl-8-(3,5,5-trimethyl-2,4-dioxoimidazolidin-1-yl)imidazo[1,2-a]pyridin-2-yl)ethyl)amino)-2-methylpyrimidin-4-yl)-2-(4-methylpyrimidin-2-yl)cyclopropane-1-carboxamide]	< 1 nM
O=C(Nc1cc(NCc2cn3cc(C4CC4)cc(CN4CCOCC4)c3n2)ncn1)[C@H]1C[C@@H]1c1cccc(Cl)c1 (racemic) [Example 73, rac-(1S*,2S*)-2-(3-chlorophenyl)-N-(6-(((6-cyclopropyl-8-(morpholinomethyl)imidazo[1,2-a]pyridin-2-yl)methyl)amino)pyrimidin-4-yl)cyclopropane-1-carboxamide]	1 to 10 nM
O=C(Nc1cc(NC(c2cn3cc(C4CC4)ccc3n2)C(F)(F)F)ccn1)[C@H]1C[C@@H]1c1cccc(Cl)c1 (some centres unmarked) [Example 141]	100 to 1000 nM
N#Cc1ccc(Cl)cc1[C@H]1C[C@@H]1C(=O)Nc1cc(C(O)c2cn3cc(C4CC4)ccc3n2)ncn1 (relative stereo) [Example 352, rac-(1S*,2S*)-2-(5-chloro-2-cyanophenyl)-N-(6-((6-cyclopropylimidazo[1,2-a]pyridin-2-yl)(hydroxy)methyl)pyrimidin-4-yl)cyclopropane-1-carboxamide]	10 to 100 nM
N#Cc1ccc(Cl)cc1[C@@H]1C[C@H]1C(=O)Nc1cc(NCc2cn3cc(C4CC4)ccc3n2)ccn1 (single isomer, unassigned) [Example 83]	10 to 100 nM
N#Cc1ccc(Cl)cc1[C@H]1C[C@@H]1C(=O)Nc1cc(NCc2cn3cc(C4CC4)ccc3n2)ccn1 (single isomer, unassigned) [Example 84]	< 1 nM
Cc1ccnc([C@H]2C[C@@H]2C(=O)Nc2cc(OCc3cn4c(N5CC(=O)N(C)C5=O)cc(C5CC5)cc4n3)ncn2)n1 [Example 554, (1S,2S)-N-(6-((7-cyclopropyl-5-(3-methyl-2,4-dioxoimidazolidin-1-yl)imidazo[1,2-a]pyridin-2-yl)methoxy)pyrimidin-4-yl)-2-(4-methylpyrimidin-2-yl)cyclopropane-1-carboxamide]	100 to 1000 nM
O=C(Nc1cc(NCc2cn3cc(C4CC4)cc(CO)c3n2)ccn1)[C@H]1C[C@@H]1c1cccc(Cl)c1 (racemic) [Example 98, rac-(1S*,2S*)-2-(3-chlorophenyl)-N-(4-(((6-cyclopropyl-8-(hydroxymethyl)imidazo[1,2-a]pyridin-2-yl)methyl)amino)pyridin-2-yl)cyclopropane-1-carboxamide]	< 1 nM
Nc1ccc(Cl)cc1[C@H]1C[C@@H]1C(=O)Nc1nccc2nn(Cc3cn4cc(C5CC5)ccc4n3)cc12 (racemic) [Example 585, rac-(1S*,2S*)-2-(2-amino-5-chlorophenyl)-N-(2-((6-cyclopropylimidazo[1,2-a]pyridin-2-yl)methyl)-2H-pyrazolo[4,3-c]pyridin-4-yl)cyclopropane-1-carboxamide]	10 to 100 nM
O=C(Nc1cc(NCc2cn3cc(C4CC4)ccc3n2)c(F)cn1)[C@H]1C[C@@H]1c1cccc(Cl)c1 (racemic) [Example 86, rac-(1S*,2S*)-2-(3-chlorophenyl)-N-(4-(((6-cyclopropylimidazo[1,2-a]pyridin-2-yl)methyl)amino)-5-fluoropyridin-2-yl)cyclopropane-1-carboxamide]	100 to 1000 nM
CC1CCC(=O)N1c1cc(C2CC2)cn2cc(CNc3ccnc(NC(=O)[C@H]4C[C@@H]4c4cccc(Cl)c4)c3)nc12 (mixture of isomers) [Example 89, (1S,2S)-2-(3-chlorophenyl)-N-(4-(((6-cyclopropyl-8-(2-methyl-5-oxopyrrolidin-1-yl)imidazo[1,2-a]pyridin-2-yl)methyl)amino)pyridin-2-yl)cyclopropane-1-carboxamide]	< 1 nM
COc1cc(NCc2cn3cc(C4CC4)ccc3n2)cc(NC(=O)[C@H]2C[C@@H]2c2cccc(Cl)c2)n1 [Example 340, (1S,2S)-2-(3-chlorophenyl)-N-(4-(((6-cyclopropylimidazo[1,2-a]pyridin-2-yl)methyl)amino)-6-methoxypyridin-2-yl)cyclopropane-1-carboxamide]	1 to 10 nM
Cc1ccnc([C@H]2C[C@@H]2C(=O)Nc2cc(N(Cc3cn4cc(C5CC5)cc(N5CC(=O)N(C)C5=O)c4n3)C(=O)OC(C)OC(=O)C(C)C)ncn2)n1 (stereo partly drawn) [Example 467, 1-((((6-cyclopropyl-8-(3-methyl-2,4-dioxoimidazolidin-1-yl)imidazo[1,2-a]pyridin-2-yl)methyl)(6-((1S,2S)-2-(4-methylpyrimidin-2-yl)cyclopropane-1-carboxamido)pyrimidin-4-yl)carbamoyl)oxy)ethyl isobutyrate]	100 to 1000 nM
Cc1ccnc([C@H]2C[C@@H]2C(=O)Nc2ccc(C#N)c(OCc3cn4cc(C5CC5)cc(N5CC(=O)N(C)C5=O)c4n3)c2)n1 [Example 669, (1S,2S)—N-(4-cyano-3-((6-cyclopropyl-8-(3-methyl-2,4-dioxoimidazolidin-1-yl)imidazo[1,2-a]pyridin-2-yl)methoxy)phenyl)-2-(4-methylpyrimidin-2-yl)cyclopropane-1-carboxamide]	< 1 nM
Nc1ccc(Cl)cc1[C@H]1C[C@@H]1C(=O)Nc1cc(NCc2cn3cc(C4CC4)ccc3n2)ncn1 (racemic) [Example 279, rac-(1S*,2S*)-2-(2-amino-5-chlorophenyl)-N-(6-(((6-cyclopropylimidazo[1,2-a]pyridin-2-yl)methyl)amino)pyrimidin-4-yl)cyclopropane-1-carboxamide]	100 to 1000 nM
O=C(Nc1ncncc1OCc1cn2cc(C3CC3)ccc2n1)[C@H]1C[C@@H]1c1cccc(Cl)c1 [Example 596, (1S,2S)-2-(3-chlorophenyl)-N-(5-((6-cyclopropylimidazo[1,2-a]pyridin-2-yl)methoxy)pyrimidin-4-yl)cyclopropane-1-carboxamide]	10 to 100 nM

Results, then the compound that gave them:

EC50	Compound
> 6000 nM	Cc1ccnc([C@H]2C[C@@H]2C(=O)Nc2cccc(S(=O)(=O)Cc3cn4cc(C5CC5)cc(N5CC(=O)N(C)C5=O)c4n3)c2)n1 [Example I-646, (1S,2S)—N-(3-(((6-cyclopropyl-8-(3-methyl-2,4-dioxoimidazolidin-1-yl)imidazo[1,2-a]pyridin-2-yl)methyl)sulfonyl)phenyl)-2-(4-methylpyrimidin-2-yl)cyclopropane-1-carboxamide]
< 1 nM	Cc1ccnc([C@H]2C[C@@H]2C(=O)Nc2cccc(NCc3cn4cc(C5CC5)cc(N5CC(=O)N(C)C5=O)c4n3)c2)n1 [Example I-644, (1S,2S)—N-(3-(((6-cyclopropyl-8-(3-methyl-2,4-dioxoimidazolidin-1-yl)imidazo[1,2-a]pyridin-2-yl)methyl)amino)phenyl)-2-(4-methylpyrimidin-2-yl)cyclopropane-1-carboxamide]
1 to 10 nM	O=C(Nc1cc(NCc2cn3cc(C4CC4)cc(N4CCN(C5CC5)CC4)c3n2)ncn1)[C@H]1C[C@@H]1c1cccc(Cl)c1 [Example I-201, (1S,2S)-2-(3-chlorophenyl)-N-(6-(((6-cyclopropyl-8-(4-cyclopropylpiperazin-1-yl)imidazo[1,2-a]pyridin-2-yl)methyl)amino)pyrimidin-4-yl)cyclopropane-1-carboxamide]
100 to 1000 nM	O=C(Nc1cc(NCc2cn3cc(C4CC4)ccc3n2)ncn1)[C@H]1C[C@@H]1c1cc(Cl)ccn1 (single isomer, unassigned) [Example I-266, rac-(1S*,2S*)-2-(4-chloropyridin-2-yl)-N-(6-(((6-cyclopropylimidazo[1,2-a]pyridin-2-yl)methyl)amino)pyrimidin-4-yl)cyclopropane-1-carboxamide]
100 to 1000 nM	COc1ccnc([C@H]2C[C@@H]2C(=O)Nc2cc(NCc3cn4cc(C5CC5)ccc4n3)ncn2)c1 (racemic) [Example I-204, rac-(1S*,2S*)-N-(6-(((6-cyclopropylimidazo[1,2-a]pyridin-2-yl)methyl)amino)pyrimidin-4-yl)-2-(4-methoxypyridin-2-yl)cyclopropane-1-carboxamide]
10 to 100 nM	Cc1ccnc([C@@H]2C[C@H]2C(=O)Nc2cc(NCc3cn4cc(C5CC5)cc(N5CC(=O)N(C)C5=O)c4n3)ncn2)n1 (single isomer, unassigned) [Example I-261]
> 6000 nM	COc1ccc(=O)n([C@H]2C[C@@H]2C(=O)Nc2cc(NCc3cn4cc(C5CC5)ccc4n3)ncn2)c1 (racemic) [Example I-181, rac-(1S*,2S*)-N-(6-(((6-cyclopropylimidazo[1,2-a]pyridin-2-yl)methyl)amino)pyrimidin-4-yl)-2-(5-methoxy-2-oxopyridin-1(2H)-yl)cyclopropane-1-carboxamide]
1 to 10 nM	COc1ccnc([C@H]2C[C@@H]2C(=O)Nc2cc(NCc3cn4cc(C5CC5)ccc4n3)ccn2)c1 (racemic) [Example I-214, rac-(1S*,2S*)-N-(4-(((6-cyclopropylimidazo[1,2-a]pyridin-2-yl)methyl)amino)pyridin-2-yl)-2-(4-methoxypyridin-2-yl)cyclopropane-1-carboxamide]
1 to 10 nM	O=C(Nc1cc(NCc2cn3cc(C4CC4)cc(N4CC5(C4)CN(C4CC4)C5)c3n2)ncn1)[C@H]1C[C@@H]1c1cccc(Cl)c1 [Example I-12, (1S,2S)-2-(3-chlorophenyl)-N-(6-(((6-cyclopropyl-8-(6-cyclopropyl-2,6-diazaspiro[3.3]heptan-2-yl)imidazo[1,2-a]pyridin-2-yl)methyl)amino)pyrimidin-4-yl)cyclopropane-1-scarboxamide]
10 to 100 nM	CN1C(=O)CN(c2cc(C3CC3)cn3cc(CNc4cc(NC(=O)[C@@H]5C[C@H]5c5cc(Cl)ccn5)ncn4)nc23)C1=O (single isomer, unassigned) [Example I-263]
